Read-outs that look alike come from different tables or passages of the source.
Assays:
Aurora B = Aurora B (Homo sapiens, UniProt Q96GD4); experiment: Aurora B inhibition in cells: Histone H3 Ser10 phosphorylation by western blotting and immunofluorescence; format: cell-based; set-up: endogenous in cells; host or cells: U2OS (human osteosarcoma); HeLa also used for the maleate salts; key to Aurora B inhibition: +++: very efficient inhibition; −: no inhibition; conditions: for Aurora B inhibition: cells, Histone H3 Ser10 phosphorylation, western blotting and immunofluorescence, compounds 1 μM; for Aurora B kinase inhibition of maleate salts (in words): U2OS and HeLa cells, 1 μM overnight with Nocodazole, immunoblotting (FIG. 11)
Experimental: Actin is used as control of quantity. Cells were incubated overnight in the presence of either C1, or C2 or CH21 or C14 or DMSO(C: control). All compounds were tested at 1 μM. Proteins were detected by western blotting.
Cells were incubated with the different molecules and Aurora B inhibition is estimated by western blotting (WB) and immuno fluorescent experiments. Histone H3 phosphorylated on Ser10 is used as a marker of Aurora B kinase activity and actin as an internal control. Each WB signal is compared to the control in the absence of compound. The efficiency estimated by WB is indicated by +++: very efficient inhibition to −: no inhibition. Immunofluorescent labelling of a mitotic cell by Histone H3 illustrates Aurora B kinase activity. However immunofluorescence is less sensitive than WB. Active molecules are underlined by a square and the intensity of the line indicates the efficiency of inhibition.
FIG. 10A: Immunofluorescence with phospho-Ser10-Histone H3 antibodies. Either the percentage of positive phospho-Ser10-Histone H3 is indicated or a representative mitosis shown. […] Immunofluorescent assays were realized with a specific phospho-antibody and mitotic U2OS cells are recognized by their DNA content stained with Hoechst. On the right, a representative cell or the percentage of H3-S10-P labelled mitosis.
(§1) FIG. 10B: Immunoblotting analysis of histone H3 phosphorylation. U2OS cells were incubated overnight with Nocodazole (50 nM) in the presence of either DMSO (Co) or Compounds (1 μM). Cells were then collected and lyzed. Identical amounts of the lyzed cell samples were run on 18% acrylamide gel containing SDS.
as §1, with “FIGS. 11B and 11C:” for “FIG. 10B:”, “U2OS and HeLa” for “U2OS”
Cells were incubated with the different molecules and Aurora B inhibition is estimated by western blotting and immunofluorescent experiments. Histone H3 phosphorylated on Ser10 is used as a marker of Aurora B kinase activity and actin as an internal control. Results are represented in FIGS. 4 and 10 and Table 3.
(§2) Cells were treated by compounds, harvested and lyzed in 9M urea then supplemented with Laemmli sample buffer. Cell extracts were subjected to SDS-PAGE and transferred to nitrocellulose filter (GE Healthcare). After blocking with 5% non-fat milk in PBS for at least 1 hour, the membranes were incubated with the primary antibodies. The following antibodies were used: phospho-Histone H3 Ser10 (1:2000, Upstate Biotechnology), anti LAST1 (Cell signalling), anti Aurora B (epitomics) and anti alpha-tubulin (Sigma) Anti-rabbit horseradish peroxidase (1:5000, GE Healthcare) was used as secondary antibodies. Bands were visualized by ECL technique (Amersham Bioscience).
Cells were seeded on glass coverslips and treated by compounds (1 μM) overnight. After treatment, cells were fixed in 4% formaldhehyde at 37° C. for 15 minutes, then permeabilized for 5 minutes with Triton X-100 in PBS.

HeLa cells = experiment: Cell viability / antiproliferative assay; format: cell-based; conditions: HeLa cells, average of three independent experiments, concentration that induced 50% death, read-out: IC50 (in nM), antiproliferative assay
Source text: Antiproliferative assays with HeLa cells have been performed with the preferred compounds and compared to the C1 and C2. The average of three independent experiments is shown. IC50 obtained with C1 and C2 were previously reported in Hoang et al, 2009, and are indicated for comparison. The lateral chain of each molecule is recalled, knowing that all the molecules have an oxo group at position 11. IC50 are indicated, i.e. the concentration that induced 50% death.
H358, H322 (lung cancer cells), U373 (glioblastomes) and HeLa ([…]) were grown in DMEM (1.5 g/L glucose) whereas HL60 (human myeloid cell line) cells were in RPMI 1640. U2OS (a human osteosarcoma cell line) cells were cultured in McCoy's Medium 5 A and liver cells (SK Hep 1) in DMEM (4 g/L glucose, (Gibco-Invitrogen). Media (Gibco-Invitrogen), were supplemented with 10% heat-inactivated foetal bovine serum (Gibco-Invitrogen), L-glutamine (2 mM), penicillin (100 UI/ml) and streptomycin (100 μg/ml).
Cell proliferation assays were conducted in 96 well culture plates. Assays were run in triplicate. Cell viability was estimated upon 72 h of treatment with varying concentrations of compound by addition of CellTiter 96Queous one Solution Reagent (Promega) directly to culture wells under conditions defined by the manufacturer.

NUAK1 [1] = molecular target: T1, NUAK1 (Homo sapiens, UniProt O60285); experiment: In vitro IC50 on recombinant kinase; format: biochemical
T1 construct: Reaction biology Corp (USA), service
T1 sequence (O60285 1-661): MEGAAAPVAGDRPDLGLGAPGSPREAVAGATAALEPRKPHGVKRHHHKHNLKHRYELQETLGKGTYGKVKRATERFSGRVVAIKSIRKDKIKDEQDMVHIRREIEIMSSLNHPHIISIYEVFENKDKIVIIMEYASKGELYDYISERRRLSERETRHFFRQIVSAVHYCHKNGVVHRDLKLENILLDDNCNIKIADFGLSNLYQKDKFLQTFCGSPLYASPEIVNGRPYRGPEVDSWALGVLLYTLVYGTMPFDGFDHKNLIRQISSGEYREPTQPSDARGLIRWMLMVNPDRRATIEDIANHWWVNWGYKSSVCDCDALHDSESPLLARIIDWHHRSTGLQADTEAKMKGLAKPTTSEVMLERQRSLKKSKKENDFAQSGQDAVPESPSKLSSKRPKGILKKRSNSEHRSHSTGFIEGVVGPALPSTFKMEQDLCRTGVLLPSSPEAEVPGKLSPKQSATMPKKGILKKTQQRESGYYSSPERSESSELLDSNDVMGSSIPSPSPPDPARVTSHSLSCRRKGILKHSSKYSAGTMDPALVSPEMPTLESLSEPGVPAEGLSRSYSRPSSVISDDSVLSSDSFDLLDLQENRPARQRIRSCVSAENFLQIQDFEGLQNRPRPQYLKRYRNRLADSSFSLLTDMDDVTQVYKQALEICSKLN
Experimental: The efficiency of the 3-amino-ethoxy compounds to inhibit Nuak1 was determined in vitro.
The profiling was performed at the MRC (Dundee University), in duplicate, on a set of 121 kinases. The panel is representative of the major different classes of kinases. Compounds were used at the concentration of 1 μM. In vitro, IC50 were determined on recombinant kinases by Reaction biology Corp (USA).

NUAK1 [2] = molecular target: T1, NUAK1; experiment: Nuak1 inhibition in cellulo: LATS1 stabilization by western blot; format: cell-based; conditions: HeLa cells treated ON; whole cell extracts, WB, compared to control
Experimental: HeLa cells were treated ON by C21 (also named CH21) and C14M and compared to the control (C0). Whole cell extracts were analyzed by WB with anti LATS1 monoclonal antibody and the loading was quantified through the tubulin signal.
Therefore the possibility of inhibiting Nuakl, in cellulo, was evaluated through the stabilization of the Large Antigen Tumour Suppressor LATS1.
as §2

Sequence of Aurora B (Q96GD4 whole entry): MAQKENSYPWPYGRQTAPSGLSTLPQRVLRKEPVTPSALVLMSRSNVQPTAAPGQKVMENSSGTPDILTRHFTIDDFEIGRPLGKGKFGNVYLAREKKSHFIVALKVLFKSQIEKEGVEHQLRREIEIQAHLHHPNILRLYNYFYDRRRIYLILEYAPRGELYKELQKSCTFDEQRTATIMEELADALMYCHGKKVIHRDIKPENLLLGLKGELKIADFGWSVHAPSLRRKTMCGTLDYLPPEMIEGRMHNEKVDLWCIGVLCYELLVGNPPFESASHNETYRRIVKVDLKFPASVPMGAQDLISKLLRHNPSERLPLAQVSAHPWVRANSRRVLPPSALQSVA

SMILES	Aurora B inhibition (Aurora B)	further results
Cc1cnc(Cl)c2c1[nH]c1ccc3cc(OCCN4CCOCC4)ccc3c12 [Compound C05, 11-Chloro-3-(2-(morpholin-4-yl)ethoxy)-8-methyl-7H-benzo[e]pyrido(4,3-b)indole]	−	
Cc1c[nH]c(=O)c2c1[nH]c1ccc3cc(OCCN4CCOCC4)ccc3c12 [Compound C07, 3-(2-(Morpholin-4-yl)ethoxy)-8-methyl-7H,10H-benzo[e]pyrido(4,3-b)indol-11-one]	+++	IC50 (HeLa cells): 107 ± 12 nM; IC50 (NUAK1 [1]): 1.6 nM
Cc1c[nH]c(=O)c2c1[nH]c1ccc3cc(OCCN4CCOCC4)ccc3c12 [Compound C07M, 3-(2-(Morpholin-4-yl)ethoxy)-8-methyl-7H,10H-benzo[e]pyrido(4,3-b)indol-11-one]		Aurora B kinase inhibition of maleate salts (in words) (Aurora B): maintained; IC50 (HeLa cells): 287 ± 32 nM
COc1ccc2c(c1)CCc1[nH]c3c(C)c[nH]c(=O)c3c1-2 [Compound C11, reference compound]	−	
COc1ncc(C)c2[nH]c3ccc4cc(OCCN(C)C)ccc4c3c12 [Compound C12, 11-Methoxy-3-(2-N,N-dimethylaminoethoxy)-8-methyl-7H-benzo[e]pyrido(4,3-b)indole]	−	
Cc1c[nH]c(=O)c2c1[nH]c1ccc3cc(OCCN(C)C)ccc3c12 [Compound C14M, 3-(2-N,N-Dimethylaminoethoxy)-8-methyl-7H,10H-benzo[e]pyrido(4,3-b)indol-11-one]		Aurora B kinase inhibition of maleate salts (in words) (Aurora B): maintained; IC50 (HeLa cells): 114 ± 82 nM; LATS1 protein level (in words) (NUAK1 [2]): large increase
Cc1cncc2c1[nH]c1ccc3cc(OCCCN(C)C)ccc3c12 [Compound C23, 3-(3-N,N-dimethylaminopropoxy)-8-methyl-7H-benzo[e]pyrido(4,3-b)indole]	−	
CCc1cnc(Cl)c2c1[nH]c1ccc3cc(OCCN(C)C)ccc3c12 [Compound C40, 11-Chloro-3-(2-N,N-dimethylaminoethoxy)-8-ethyl-7H-benzo[e]pyrido(4,3-b)indole]	−	
CCc1c[nH]c(=O)c2c1[nH]c1ccc3cc(OCCN(C)C)ccc3c12 [Compound C48, 3-(2-N,N-dimethylaminoethoxy)-8-ethyl-7H,11H-benzo[e]pyrido(4,3-b)indol-11-one]	+++	IC50 (HeLa cells; Homo sapiens, HeLa): 53 ± 3 nM; IC50 (NUAK1 [1]): 5.7 nM
CCc1c[nH]c(=O)c2c1[nH]c1ccc3cc(OCCN(C)C)ccc3c12 [Compound C48M, 3-(2-N,N-dimethylaminoethoxy)-8-ethyl-7H,11H-benzo[e]pyrido(4,3-b)indol-11-one]		Aurora B kinase inhibition of maleate salts (in words) (Aurora B): maintained; IC50 (HeLa cells): 63 ± 17 nM
COCCOc1ccc2c(ccc3[nH]c4c(C)cnc(Cl)c4c32)c1 [Compound C708, 11-Chloro-3-(2-methoxyethoxy)-8-methyl-7H-benzo[e]pyrido(4,3-b)indole]	−	
Cc1cnc(Cl)c2c1[nH]c1ccc3cc(OCCN4CCCCC4)ccc3c12 [Compound C709, 11-Chloro-3-(2-(piperidin-1-yl)ethoxy)-8-methyl-7H-benzo[e]pyrido(4,3-b)indole]	−	
Cc1c[nH]c(=O)c2c1[nH]c1ccc3cc(OCCN4CCCCC4)ccc3c12 [Compound C710, 3-(2-(Piperidin-1-yl)ethoxy)-8-methyl-7H,10H-benzo[e]pyrido(4,3-b)indol-11-one]	+++	
COCCOc1ccc2c(ccc3[nH]c4c(C)c[nH]c(=O)c4c32)c1 [Compound C711, 3-(2-Methoxyethoxy)-8-methyl-7H,10H-benzo[e]pyrido(4,3-b)indol-11-one]	−	

Source: patent US20140073637A1, “AMINO-SUBSTITUTED-ALKYLOXY-BENZO[E]PYRIDO[4,3-B]INDOLE DERIVATIVES AS NEW POTENT KINASE INHIBITORS” (INSTITUT CURIE, priority 2011, published 2014)
